ChEMBL document CHEMBL1136631, “Bis-sulfonamides as endothelin receptor antagonists” (Bioorg Med Chem Lett, 2003)
pIC50: −log10 of the molar value.

What was measured:
[1] = molecular target: T1, Endothelin receptor type B (Homo sapiens, UniProt P24530); assay: Inhibitory concentration required against [125I]ET1 binding to membranes of CHO cells expressing human ETB receptor; format: cell membranes
T1 sequence (P24530 whole entry): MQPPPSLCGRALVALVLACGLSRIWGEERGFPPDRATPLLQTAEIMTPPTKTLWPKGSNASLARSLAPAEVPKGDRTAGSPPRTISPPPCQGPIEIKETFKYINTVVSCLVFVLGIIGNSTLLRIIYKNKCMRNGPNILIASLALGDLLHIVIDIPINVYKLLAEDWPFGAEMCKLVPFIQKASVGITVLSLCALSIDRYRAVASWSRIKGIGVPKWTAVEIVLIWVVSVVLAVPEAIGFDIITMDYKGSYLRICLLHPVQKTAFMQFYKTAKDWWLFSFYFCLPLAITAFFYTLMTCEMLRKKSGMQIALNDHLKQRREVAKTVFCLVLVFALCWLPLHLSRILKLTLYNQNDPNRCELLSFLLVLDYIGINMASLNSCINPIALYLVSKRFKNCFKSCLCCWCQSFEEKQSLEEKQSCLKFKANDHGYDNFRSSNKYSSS

[2] = molecular target: T2, Endothelin receptor type B (Rattus norvegicus, UniProt P21451); assay: In vitro inhibitory potency for preventing sarafotoxin S6c induced constriction of rat tracheal rings (ETB receptor); format: functional, tissue-based, Trachea; conditions: read-out: pA2 (converted)
T2 sequence (P21451 whole entry): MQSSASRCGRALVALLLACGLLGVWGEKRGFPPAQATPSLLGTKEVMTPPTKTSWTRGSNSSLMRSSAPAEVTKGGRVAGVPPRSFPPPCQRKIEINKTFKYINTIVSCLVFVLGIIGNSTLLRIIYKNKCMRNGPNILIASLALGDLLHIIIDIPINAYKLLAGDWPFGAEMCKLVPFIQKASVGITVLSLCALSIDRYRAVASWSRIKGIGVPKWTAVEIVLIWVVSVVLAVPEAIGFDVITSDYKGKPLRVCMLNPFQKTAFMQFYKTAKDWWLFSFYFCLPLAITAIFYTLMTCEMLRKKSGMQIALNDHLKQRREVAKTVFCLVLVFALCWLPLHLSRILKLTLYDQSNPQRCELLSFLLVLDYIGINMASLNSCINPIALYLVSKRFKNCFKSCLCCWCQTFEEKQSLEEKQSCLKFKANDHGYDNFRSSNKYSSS

Endothelin-1 receptor [3] = molecular target: T3, Endothelin-1 receptor (Rattus norvegicus, UniProt P26684); assay: In vitro inhibitory potency for preventing ET-1 induced constriction of rat aortic rings (ETA receptor); format: functional; conditions: read-out: pA2 (converted)
T3 sequence (P26684 whole entry): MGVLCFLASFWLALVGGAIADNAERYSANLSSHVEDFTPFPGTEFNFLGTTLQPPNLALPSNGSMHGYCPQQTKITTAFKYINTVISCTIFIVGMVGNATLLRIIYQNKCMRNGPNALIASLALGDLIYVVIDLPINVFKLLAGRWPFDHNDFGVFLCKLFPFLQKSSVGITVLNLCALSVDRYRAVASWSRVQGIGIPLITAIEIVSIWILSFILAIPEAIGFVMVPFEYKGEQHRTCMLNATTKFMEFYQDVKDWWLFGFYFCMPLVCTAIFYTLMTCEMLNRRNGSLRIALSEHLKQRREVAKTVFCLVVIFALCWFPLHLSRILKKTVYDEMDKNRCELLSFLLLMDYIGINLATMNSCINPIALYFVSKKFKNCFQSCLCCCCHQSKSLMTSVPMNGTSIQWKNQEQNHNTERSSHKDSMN

Endothelin-1 receptor [4] = molecular target: T4, Endothelin-1 receptor (Homo sapiens, UniProt P25101); assay: Inhibitory concentration required against [125I]ET1 binding to membranes of CHO cells expressing human ETA receptor; format: cell membranes
T4 sequence (P25101 whole entry): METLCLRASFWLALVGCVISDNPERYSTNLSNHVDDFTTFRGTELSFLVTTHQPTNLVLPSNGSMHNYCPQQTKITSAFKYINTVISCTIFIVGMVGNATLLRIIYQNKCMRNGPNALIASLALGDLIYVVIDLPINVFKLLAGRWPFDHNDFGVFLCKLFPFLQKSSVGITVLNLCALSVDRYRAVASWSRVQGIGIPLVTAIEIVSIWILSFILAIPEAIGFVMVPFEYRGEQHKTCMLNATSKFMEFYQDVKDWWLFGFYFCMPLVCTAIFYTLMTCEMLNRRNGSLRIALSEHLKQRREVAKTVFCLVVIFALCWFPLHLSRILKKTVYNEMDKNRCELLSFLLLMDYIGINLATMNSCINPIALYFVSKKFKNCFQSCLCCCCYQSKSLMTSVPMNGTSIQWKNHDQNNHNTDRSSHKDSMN

| Structure (SMILES) | pIC50 [1] | pIC50 (Endothelin-1 receptor [4]) | Kb [2] [µM] | Kb (Endothelin-1 receptor [3]) [µM] |
| --- | --- | --- | --- | --- |
| CCCS(=O)(=O)NCCOc1nc(C2CC2)nc(NS(=O)(=O)c2ccc(C(C)C)cn2)c1Oc1ccccc1OC | 7.08 | 7.10 | 0.363 | 0.288 |
| CCS(=O)(=O)NCCOc1nc(-c2ncccn2)nc(NS(=O)(=O)c2ccc(C(C)(C)C)cc2)c1Oc1ccccc1OC | 6.06 | 6.31 | – | – |
| COc1ccccc1Oc1c(NS(=O)(=O)c2ccc(C(C)(C)C)cc2)nc(-c2ncccn2)nc1OCCNS(=O)(=O)c1cccs1 | 7.80 | – | – | – |
| CCS(=O)(=O)NCCOc1nc(C2CC2)nc(NS(=O)(=O)c2ccc(C(C)C)cn2)c1Oc1ccccc1OC | 6.40 | 7.30 | 0.269 | 0.347 |
| COc1ccccc1Oc1c(NS(=O)(=O)c2ccc(C(C)C)cn2)nc(-c2cc(OC)c(OC)c(OC)c2)nc1OCCNS(=O)(=O)c1ccc(C)cc1 | 8.40 | – | – | > 10 |
| CCCS(=O)(=O)NCCOc1nc(-c2cc(OC)c(OC)c(OC)c2)nc(NS(=O)(=O)c2ccc(C(C)C)cn2)c1Oc1ccccc1OC | 7.62 | – | 0.0331 | 3.16 |
| CCCS(=O)(=O)NCCCOc1nc(C2CC2)nc(NS(=O)(=O)c2ccc(C(C)C)cn2)c1Oc1ccccc1OC | – | – | 0.0692 | 0.245 |
| CCS(=O)(=O)NCCCOc1nc(C2CC2)nc(NS(=O)(=O)c2ccc(C(C)C)cn2)c1Oc1ccccc1OC | – | – | 0.269 | 0.105 |
| COc1ccccc1Oc1c(NS(=O)(=O)c2ccc(C(C)(C)C)cc2)nc(-c2ncccn2)nc1OCCCNS(=O)(=O)c1cccs1 | 8.40 | 7.07 | – | – |
| COc1ccccc1Oc1c(NS(=O)(=O)c2ccc(C(C)C)cn2)nc(-c2cc(OC)c(OC)c(OC)c2)nc1OCCNS(=O)(=O)c1cccs1 | 8.15 | – | 0.0389 | – |
| CCS(=O)(=O)NCCCOc1nc(-c2ncccn2)nc(NS(=O)(=O)c2ccc(C(C)(C)C)cc2)c1Oc1ccccc1OC | 7.00 | 5.80 | – | – |
| COc1ccccc1Oc1c(NS(=O)(=O)c2ccc(C(C)C)cn2)nc(N2CCOCC2)nc1OCCNS(=O)(=O)c1ccc(C)cc1 | 8.05 | 5.86 | – | – |
| COc1ccccc1Oc1c(NS(=O)(=O)c2ccc(C(C)C)cn2)nc(C2CC2)nc1OCCCNS(=O)(=O)c1ccc(C)cc1 | 7.72 | – | 0.049 | 0.309 |
| COc1ccccc1Oc1c(NS(=O)(=O)c2ccc(C(C)C)cn2)nc(C2CC2)nc1OCCCNS(=O)(=O)c1cccs1 | 8.40 | – | 0.00912 | 0.12 |
| CCS(=O)(=O)NCCOc1nc(N2CCOCC2)nc(NS(=O)(=O)c2ccc(C(C)C)cn2)c1Oc1ccccc1OC | 6.91 | 7.72 | – | – |
| COc1ccccc1Oc1c(NS(=O)(=O)c2ccc(C(C)C)cn2)nc(N2CCOCC2)nc1OCCCNS(=O)(=O)c1ccc(C)cc1 | 7.62 | 6.94 | 0.107 | 4.79 |
| CCCS(=O)(=O)NCCOc1nc(N2CCOCC2)nc(NS(=O)(=O)c2ccc(C(C)C)cn2)c1Oc1ccccc1OC | – | – | 0.24 | 0.832 |

Now from value to molecule, other results behind:

| pIC50 [1] | pIC50 (Endothelin-1 receptor [4]) | Structure (SMILES) | Kb [2] [µM] | Kb (Endothelin-1 receptor [3]) [µM] |
| --- | --- | --- | --- | --- |
| 8.70 | 7.85 | COc1ccccc1Oc1c(NS(=O)(=O)c2ccc(C(C)(C)C)cc2)nc(C2CC2)nc1OCCCNS(=O)(=O)c1cccs1 | – | – |
| 5.08 | 5.73 | COc1ccccc1Oc1c(NS(=O)(=O)c2ccc(C)cn2)nc(C2CC2)nc1OCCNS(=O)(=O)c1cccs1 | – | – |
| 5.33 | 5.88 | CCCS(=O)(=O)NCCOc1nc(C2CC2)nc(NS(=O)(=O)c2ccc(C)cn2)c1Oc1ccccc1OC | – | – |
| 6.45 | 5.56 | COc1ccccc1Oc1c(NS(=O)(=O)c2ccc(C)cn2)nc(-c2cc(OC)c(OC)c(OC)c2)nc1OCCNS(=O)(=O)c1cccs1 | – | – |
| 5.81 | – | COc1ccccc1Oc1c(NS(=O)(=O)c2ccc(C)cn2)nc(-c2ccncc2)nc1OCCNS(=O)(=O)c1ccc(C)cc1 | – | – |
| 5.43 | 5.55 | COc1ccccc1Oc1c(NS(=O)(=O)c2ccc(C)cn2)nc(-c2ccncc2)nc1OCCNS(=O)(=O)c1cccs1 | – | – |
| 5.25 | 6.24 | CCS(=O)(=O)NCCOc1nc(C2CC2)nc(NS(=O)(=O)c2ccc(C)cn2)c1Oc1ccccc1OC | – | – |
| 6.03 | 7.29 | CCCS(=O)(=O)NCCOc1nc(N2CCOCC2)nc(NS(=O)(=O)c2ccc(C)cn2)c1Oc1ccccc1OC | – | – |
| 5.68 | – | COc1ccccc1Oc1c(NS(=O)(=O)c2ccc(C)cn2)nc(Cc2ccc3c(c2)OCO3)nc1OCCNS(=O)(=O)c1cccs1 | – | – |
